Data from patent US20220279787A1, “a-Substituted Phenyl Structure-Containing Compound, Preparation Method Thereof, and Disinfectant” (Henan Ruibo Pharmaceutical Technology Co. Ltd., priority 2019, published 2022).

Key:
Type in all cases: cell-based
[1] = test system: Bacillus subtilis var. niger spores ATCC 9372; assay: Suspension quantitative experiment, Bacillus subtilis var. niger spores; conditions: Bacillus subtilis, ATCC9372, 0.5 h, read-out: Activity (killing logarithmic value)
Procedure: (4) Operation Method of Suspension Quantitative Experiment:
(§1) a. The Bacillus subtilis var. niger spores ATCC 9372 freeze-dried strain tube was provided, opened up under an aseptic condition, and an appropriate amount of nutrient broth was added thereto with a capillary pipette. The strain was melted and dispersed by gently blowing and sucking several times. A test tube containing 5.0 mL-10.0 mL of nutrient broth medium was provided, and a small amount of bacterial suspension was dropped thereto, and incubated at 37° C. for 18 h-24 h. The bacterial suspension of the first generation culture was taken by using an inoculation loop.
b. The monoclonal strains of the first generation culture were picked out and placed in 3 mL of NMB. The strains were shaken in a constant temperature culture shaker for 3 h with a rotation speed of 220 rpm, obtaining a bacterial suspension with a concentration of (1-5)×10^8 CFU/mL.
(§2) c. 0.5 mL of bacterial suspension was added to a sterile test tube, and 0.5 mL of an organic interfering substance (0.03 mol/L PBS buffer) was then added thereto. They were mixed to be uniform, and placed in a water bath at 20° C.±1° C. for 5 min. 4.0 mL of the sample to be tested prepared in step (1) was drawn with a sterile pipette and injected into the mixed solution, mixed quickly, and the time was recorded immediately.
(§3) d. After the experimental bacteria interacted with the sample to be tested for the predetermined time. 0.5 mL of the mixture of the experimental bacteria and a disinfectant was drawn respectively and added to 4.5 mL of a neutralizer, and mixed to be uniform.
(§4) e. After 10 min of neutralization, 1.0 mL of the sample solution was drawn, and the number of viable bacteria was determined by viable count method. After the viable count method, sample solution of each pipette was inoculated onto 2 plates. When the number of colonies growing on the plate was large, 10-fold dilution was performed, and then the viable bacteria was cultured and counted.
h. At the same time, PBS buffer was used to replace the sample to be tested, and a parallel test was performed as a positive control.
f. All test samples were placed in a 37° C. incubator overnight, and the results were observed.
g. The experiment was repeated for 3 times, the concentration of viable bacteria (CFU/mL) of each group was calculated, and converted to logarithmic value (N), and then the killing logarithmic value was calculated according to the following equation:
(§5) Killing logarithmic value (KL)=the logarithmic value of the average viable bacteria concentration of the control group (No)−the logarithmic value of the viable bacteria concentration of the test group (Nx).
(§6) When calculating the killing logarithmic value, two digits after the decimal point was kept, and digital round-off was allowed.

[2] = test system: Escherichia coli ATCC 25922; assay: Suspension quantitative sterilization experiment, Escherichia coli ATCC 25922; conditions: for Activity (killing logarithmic value): suspension method, action time 30 min
Procedure: (§7) (5) Operation Method of Suspension Quantitative Experiment:
as §1, with “The” for “The Bacillus subtilis var. niger spores ATCC 9372”, “loop, and streaked and inoculated onto a nutrient agar medium plate, and incubated at 37° C. for 18 h-24 h. The typical colonies from the second generation culture was picked out, inoculated onto a nutrient agar slant, and incubated at 37° C. for 18 h-24 h, obtaining the third generation culture.” for “loop.”
(§8) b. The monoclonal strains of the third generation culture of Escherichia coli ATCC 25922, Staphylococcus aureus ATCC 29213, and Pseudomonas aeruginosa ATCC 27853 were picked out respectively and placed in 3 mL of NMB. The strains were shaken in a constant temperature culture shaker for 3 h with a rotation speed of 220 rpm, obtaining a bacterial suspension with a concentration of (1-5)×10^8 CFU/mL.
as §2
as §3, with “time of 1 min, 5 min, 15 min and 30 min.” for “time.”, “the sample to be tested” for “a disinfectant”
as §4
(§9) f. At the same time, PBS buffer was used to replace the sample to be tested, and a parallel test was performed as a positive control.
(§10) g. All test samples were placed in a 37° C. incubator overnight, and the results were observed.
(§11) h. The experiment was repeated for 3 times, the concentration of viable bacteria (CFU/mL) of each group was calculated, and converted to logarithmic value (N), and then the killing logarithmic value was calculated according to the following equation:
as §5, §6

[3] = test system: Pseudomonas aeruginosa ATCC 27853; assay: Suspension quantitative sterilization experiment, Pseudomonas aeruginosa ATCC 27853; conditions: for Activity (killing logarithmic value): suspension method, action time 30 min
Procedure: as §7
as §1, with “The” for “The Bacillus subtilis var. niger spores ATCC 9372”, “loop, and streaked and inoculated onto a nutrient agar medium plate, and incubated at 37° C. for 18 h-24 h. The typical colonies from the second generation culture was picked out, inoculated onto a nutrient agar slant, and incubated at 37° C. for 18 h-24 h, obtaining the third generation culture.” for “loop.”
as §8, §2
as §3, with “time of 1 min, 5 min, 15 min and 30 min.” for “time.”, “the sample to be tested” for “a disinfectant”
as §4, §9, §10, §11, §5, §6

[4] = test system: Staphylococcus aureus ATCC 29213; assay: Suspension quantitative sterilization experiment, Staphylococcus aureus ATCC 29213; conditions: for Activity (killing logarithmic value): suspension method, action time 30 min
Procedure: as §7
as §1, with “The” for “The Bacillus subtilis var. niger spores ATCC 9372”, “loop, and streaked and inoculated onto a nutrient agar medium plate, and incubated at 37° C. for 18 h-24 h. The typical colonies from the second generation culture was picked out, inoculated onto a nutrient agar slant, and incubated at 37° C. for 18 h-24 h, obtaining the third generation culture.” for “loop.”
as §8, §2
as §3, with “time of 1 min, 5 min, 15 min and 30 min.” for “time.”, “the sample to be tested” for “a disinfectant”
as §4, §9, §10, §11, §5, §6

Compound: O=C(O)C(c1ccccc1)c1ccccc1 [Example 7, 2,2-diphenylacetic acid]
- log reduction at 15000 µg/mL [1]: 1.97
- Activity (killing logarithmic value) ([2]; 6.25 g/L): 1.02
- Activity (killing logarithmic value) ([3]; 6.25 g/L): 1.29
- Activity (killing logarithmic value) ([4]; 6.25 g/L): 1.45

Compound: CNC(=O)C(c1ccccc1)c1ccc(F)c(F)c1 (centres unmarked) [Example 3, 2-(3,4-difluorophenyl)-N-methyl-2-phenylacetamide]
- log reduction at 15000 µg/mL [1]: 2.07
- Activity (killing logarithmic value) ([2]; 6.25 g/L): 1.14
- Activity (killing logarithmic value) ([3]; 6.25 g/L): 1.56
- Activity (killing logarithmic value) ([4]; 6.25 g/L): 1.54

Compound: Oc1ccccc1 [Phenol solution, Phenol]
- Killing logarithmic value ([2]; 0.15 g/L, 1 min): 0.21
- Killing logarithmic value ([2]; 0.15 g/L, 5 min): 0.29
- Killing logarithmic value ([2]; 0.15 g/L, 15 min): 0.43
- Killing logarithmic value ([2]; 0.15 g/L, 30 min): 0.47
- Killing logarithmic value ([2]; 0.31 g/L, 1 min): 0.29
- Killing logarithmic value ([2]; 0.31 g/L, 5 min): 0.31
- Killing logarithmic value ([2]; 0.31 g/L, 15 min): 0.46
- Killing logarithmic value ([2]; 0.31 g/L, 30 min): 0.58
- Killing logarithmic value ([2]; 0.78 g/L, 1 min): 0.32
- Killing logarithmic value ([2]; 0.78 g/L, 5 min): 0.46
- Killing logarithmic value ([2]; 0.78 g/L, 15 min): 0.63
- Killing logarithmic value ([2]; 0.78 g/L, 30 min): 0.79
- Killing logarithmic value ([2]; 1.56 g/L, 1 min): 0.47
- Killing logarithmic value ([2]; 1.56 g/L, 5 min): 0.65
- Killing logarithmic value ([2]; 1.56 g/L, 15 min): 0.78
- Killing logarithmic value ([2]; 1.56 g/L, 30 min): 0.99
- Killing logarithmic value ([2]; 3.12 g/L, 1 min): 0.69
- Killing logarithmic value ([2]; 3.12 g/L, 5 min): 0.76
- Killing logarithmic value ([2]; 3.12 g/L, 15 min): 0.81
- Killing logarithmic value ([2]; 3.12 g/L, 30 min): 1.02
- Killing logarithmic value ([2]; 6.25 g/L, 1 min): 3.57
- Killing logarithmic value ([2]; 6.25 g/L, 5 min): 3.69
- Killing logarithmic value ([2]; 6.25 g/L, 15 min): 5.86
- Killing logarithmic value ([2]; 6.25 g/L, 30 min): 6.17
- Killing logarithmic value ([3]; 0.15 g/L, 1 min): 0.46
- Killing logarithmic value ([3]; 0.15 g/L, 5 min): 0.51
- Killing logarithmic value ([3]; 0.15 g/L, 15 min): 0.57
- Killing logarithmic value ([3]; 0.15 g/L, 30 min): 0.67
- Killing logarithmic value ([3]; 0.31 g/L, 1 min): 0.76
- Killing logarithmic value ([3]; 0.31 g/L, 5 min): 0.79
- Killing logarithmic value ([3]; 0.31 g/L, 15 min): 0.84
- Killing logarithmic value ([3]; 0.31 g/L, 30 min): 0.93
- Killing logarithmic value ([3]; 0.78 g/L, 1 min): 0.99
- Killing logarithmic value ([3]; 0.78 g/L, 5 min): 1.08
- Killing logarithmic value ([3]; 0.78 g/L, 15 min): 1.12
- Killing logarithmic value ([3]; 0.78 g/L, 30 min): 1.16
- Killing logarithmic value ([3]; 1.56 g/L, 1 min): 1.21
- Killing logarithmic value ([3]; 1.56 g/L, 5 min): 1.25
- Killing logarithmic value ([3]; 1.56 g/L, 15 min): 1.34
- Killing logarithmic value ([3]; 1.56 g/L, 30 min): 1.65
- Killing logarithmic value ([3]; 3.12 g/L, 1 min): 1.56
- Killing logarithmic value ([3]; 3.12 g/L, 5 min): 1.86
- Killing logarithmic value ([3]; 3.12 g/L, 15 min): 1.92
- Killing logarithmic value ([3]; 3.12 g/L, 30 min): 1.98
- Killing logarithmic value ([3]; 6.25 g/L, 1 min): 3.07
- Killing logarithmic value ([3]; 6.25 g/L, 5 min): 3.65
- Killing logarithmic value ([3]; 6.25 g/L, 15 min): 4.55
- Killing logarithmic value ([3]; 6.25 g/L, 30 min): 5.25
- Killing logarithmic value ([4]; 0.15 g/L, 1 min): 0.45
- Killing logarithmic value ([4]; 0.15 g/L, 5 min): 0.48
- Killing logarithmic value ([4]; 0.15 g/L, 15 min): 0.55
- Killing logarithmic value ([4]; 0.15 g/L, 30 min): 0.73
- Killing logarithmic value ([4]; 0.31 g/L, 1 min): 0.67
- Killing logarithmic value ([4]; 0.31 g/L, 5 min): 0.69
- Killing logarithmic value ([4]; 0.31 g/L, 15 min): 0.73
- Killing logarithmic value ([4]; 0.31 g/L, 30 min): 0.86
- Killing logarithmic value ([4]; 0.78 g/L, 1 min): 0.79
- Killing logarithmic value ([4]; 0.78 g/L, 5 min): 0.82
- Killing logarithmic value ([4]; 0.78 g/L, 15 min): 0.89
- Killing logarithmic value ([4]; 0.78 g/L, 30 min): 0.95
- Killing logarithmic value ([4]; 1.56 g/L, 1 min): 0.86
- Killing logarithmic value ([4]; 1.56 g/L, 5 min): 0.91
- Killing logarithmic value ([4]; 1.56 g/L, 15 min): 0.99
- Killing logarithmic value ([4]; 1.56 g/L, 30 min): 1.02
- Killing logarithmic value ([4]; 3.12 g/L, 1 min): 1.13
- Killing logarithmic value ([4]; 3.12 g/L, 5 min): 1.21
- Killing logarithmic value ([4]; 3.12 g/L, 15 min): 1.23
- Killing logarithmic value ([4]; 3.12 g/L, 30 min): 1.26
- Killing logarithmic value ([4]; 6.25 g/L, 1 min): 2.52
- Killing logarithmic value ([4]; 6.25 g/L, 5 min): 2.62
- Killing logarithmic value ([4]; 6.25 g/L, 15 min): 2.74
- Killing logarithmic value ([4]; 6.25 g/L, 30 min): 2.99

Compound: Cc1cc(O)cc(C)c1Cl [4-Chloro-3,5-dimethylphenol solution, 4-chloro-3,5-dimethylphenol]
- Killing logarithmic value ([2]; 0.15 g/L, 1 min): 1.69
- Killing logarithmic value ([2]; 0.15 g/L, 5 min): 1.78
- Killing logarithmic value ([2]; 0.15 g/L, 15 min): 2.32
- Killing logarithmic value ([2]; 0.15 g/L, 30 min): 2.99
- Killing logarithmic value ([2]; 0.31 g/L, 1 min): 6.17
- Killing logarithmic value ([2]; 0.31 g/L, 5 min): 6.17
- Killing logarithmic value ([2]; 0.31 g/L, 15 min): 6.17
- Killing logarithmic value ([2]; 0.31 g/L, 30 min): 6.17
- Killing logarithmic value ([3]; 0.15 g/L, 1 min): 0.78
- Killing logarithmic value ([3]; 0.15 g/L, 5 min): 0.87
- Killing logarithmic value ([3]; 0.15 g/L, 15 min): 0.94
- Killing logarithmic value ([3]; 0.15 g/L, 30 min): 0.96
- Killing logarithmic value ([3]; 0.31 g/L, 1 min): 4.77
- Killing logarithmic value ([3]; 0.31 g/L, 5 min): 4.87
- Killing logarithmic value ([3]; 0.31 g/L, 15 min): 4.91
- Killing logarithmic value ([3]; 0.31 g/L, 30 min): 4.95
- Killing logarithmic value ([4]; 0.15 g/L, 1 min): 2.07
- Killing logarithmic value ([4]; 0.15 g/L, 5 min): 2.74
- Killing logarithmic value ([4]; 0.15 g/L, 15 min): 2.90
- Killing logarithmic value ([4]; 0.15 g/L, 30 min): 3.16
- Killing logarithmic value ([4]; 0.31 g/L, 1 min): 3.12
- Killing logarithmic value ([4]; 0.31 g/L, 5 min): 3.30
- Killing logarithmic value ([4]; 0.31 g/L, 15 min): 3.45
- Killing logarithmic value ([4]; 0.31 g/L, 30 min): 4.13
